Measured values published in PMC11666850, “Development and evaluation of deuterated [^18F]JHU94620 isotopologues for the non-invasive assessment of the cannabinoid type 2 receptor in brain” (EJNMMI Radiopharmacy and Chemistry, 2024).
Read-outs that look alike come from different tables or passages of the source.

Assays:
CB1R = details: cited from earlier work
CB2R [1] = details: cited from earlier work
CB2R [2] = molecular target: T1, CB2R (Rattus norvegicus, UniProt Q9QZN9); set-up: method as in Govaerts et al. [2004]; details: rat spleen; ref Govaerts et al. [2004]; cited from earlier work
T1 construct: from tissue; host or cells: rat spleen: cryosections in vitro, and spleen of living Wistar rats in PET
T1 sequence (Q9QZN9 1-360): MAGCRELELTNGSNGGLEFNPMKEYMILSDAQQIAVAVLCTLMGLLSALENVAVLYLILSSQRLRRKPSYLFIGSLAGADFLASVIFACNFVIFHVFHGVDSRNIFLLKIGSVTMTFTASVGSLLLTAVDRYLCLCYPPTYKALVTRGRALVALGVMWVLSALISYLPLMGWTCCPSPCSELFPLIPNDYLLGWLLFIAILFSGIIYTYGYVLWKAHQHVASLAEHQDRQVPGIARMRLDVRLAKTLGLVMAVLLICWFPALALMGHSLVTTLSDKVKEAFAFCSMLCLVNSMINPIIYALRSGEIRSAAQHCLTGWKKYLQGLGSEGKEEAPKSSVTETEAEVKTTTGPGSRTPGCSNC

CB2R [3] = molecular target: T2, CB2R (Mus musculus, UniProt P47936); set-up: method as in Govaerts et al. [2004]; details: mouse spleen; ref Govaerts et al. [2004]; cited from earlier work
T2 construct: from tissue; host or cells: mouse spleen cryosections

CB2R [4] = molecular target: T1, CB2R; assay type: in vivo; details: Wistar rats, i.v. pre-treatment 5 min prior tracer, between 2.5 and 20 min p.i., 1-way ANOVA p < 0.05
Description: The dynamic biodistribution of the radiotracer in the lower body of rats was assessed by small animal PET (Nanoscan, Mediso, Hungary) over 60 min with a subsequently T1-weighted MR. Anaesthetized (2% isoflurane, carrier gas mixture of 40% air and 60% O2) male Wistar rats (body weight: 205–308 g, age: 8–10 weeks, no gender-specific differences were taken into account) were kept during imaging on a heated animal bed to sustain body temperature and were pretreated with vehicle (DMSO:Kolliphore EL:0.9% saline, 1:2:7), JHU94620-d8 (1.5 mg kg^−1 bodyweight) or with GW405833 (5 mg kg^−1 bodyweight) 5 min prior tracer application ([^18F]JHU94620-d8: 7.7–28.2 MBq, 0.4 to 3.2 nmol kg^−1 bodyweight), whereby all injections were administered intravenously. For the evaluation of the hCB2R-specific binding of the radiotracer in the brain, female Wistar rats (n = 6, 253–269 g, age: 8 month) were used carrying stereotactically injected constructs of AAV2/7-CaMKII0.4-intron-hCB2R(D80N) in the right striatum and AAV2/7-CaMKII0.4-intron-3flag-eGFP in the control/contralateral striatum (Vandeputte et al. [2011]). 21–26 MBq corresponding to 0.2 to 2.0 nmol kg^−1 bodyweight radiotracer were injected, whereas in displacement studies 5 mg kg^−1 bodyweight GW405833 was administered 20 min after the radiotracer (each n = 3). The PET scans were performed six months after the stereotactic injections of the AAV2/7-constructs.
The acquisitions were performed in normal mode and a coincidence mode 1–5. For subsequent dynamic reconstructions list mode data were sorted into sinograms (12 × 10 s, 6 × 30 s, 5 × 60 s and 10 × 300 s). The frames were reconstructed by Ordered Subset Expectation Maximization applied to 3D (OSEM3D) sinograms corrected for decay and attenuation (4 iterations, 6 subsets and a voxel size of 0.4 mm^3) with the Nucline software v2.01 (Mediso, Budapest, Hungary). Analyses of reconstructed studies were performed with PMOD software (v4.205, PMOD Technologies LLC, Fällanden, Switzerland) and results are expressed in standardized uptake values (SUVs) or normalized to a reference region (SUVr).

[5] = cited from earlier work
hCB1R = molecular target: hCB1R; set-up: method as in Moldovan et al. [2016]; details: ref Moldovan et al. [2016]; cited from earlier work
hCB2R = molecular target: hCB2R; set-up: method as in Moldovan et al. [2016]; details: ref Moldovan et al. [2016]; cited from earlier work
[6] = pH 7.4; cited from earlier work
[7] = Ex vivo radiometabolite analysis in CD-1 mice; details: CD-1, mouse, in vivo, 30 min
Description: Female adult CD-1 mice (25–42 g body weight) were used for radiometabolite analysis of [^18F]JHU94620-d4 (n = 2, 33 and 34 MBq) and [^18F]JHU94620-d8 (n = 3, 26–33 MBq) at 30 min after intravenous tail vein injection of the radiotracer to allow for the comparison of radiometabolite analysis of [^18F]JHU94620 (Moldovan et al. [2016]). The mice were immobilized by short isoflurane narcosis for the injection of the radiotracer in a restrainer and awakened mice were kept in an isolated cage until euthanisation by cervical dislocation under isoflurane narcosis. Male Wistar rats (n = 12, 613–794 g) were used for radiometabolite analysis of [^18F]JHU94620-d8 at different time points (5, 15, 30 and 60 min p.i.) after intravenous tail vein injection of the radiotracer (37–74 MBq) for the correction of the input function in pharmacokinetic analysis. Rats were kept under isoflurane narcosis (gas mixture: 2.5% isoflurane and O2) on a warmed plate until euthanization by decapitation of deep narcotized animals. Plasma samples were obtained by centrifugation with 5500 g of blood samples for 2 min at 4 °C. Resected tissues brain and spleen were kept on ice and minced for 3 × 20 s with adding 0.5 to 1 mL of 0.9% NaCl using a Precellys lysing kit and Minilys homogenizer (Bertin Technologies SAS, Montigny-le-Bretonneux, France).
The samples were further processed for subsequent radio-chromatographic analyses. Two consecutive extractions were performed in duplicates for plasma and brain determinations. Plasma, brain and spleen samples were added to the four time the volume of an ice-cold MeOH/H2O mixture (9:1, v/v). The samples were vortexed for 3 min, incubated on ice for 5 min and centrifuged at 8,600 g for 5 min. Supernatants were collected and the precipitates were re-dissolved in 100 µL of extraction solvent and the extraction procedure was repeated. The activities of supernatants and precipitates were measured in a γ-counter (1480 WIZARD, Perkin Elmer), and the extraction efficiencies were calculated as the ratio of radioactivity in the supernatant to the radioactivity in the original sample (supernatant + precipitate). The supernatants from both extractions were combined, concentrated at 70 °C under argon stream up to a remaining volume of 100 µL, and subsequently analysed by analytical radio-HPLC (method A or B).

human CB2R (hCB2R) = molecular target: T3, human CB2R (hCB2R) (Homo sapiens, UniProt P34972); assay: Homologous competition binding, CHO(hCB2R) cell membranes
T3 construct: expressed in transfected cells; host or cells: CHO(hCB2R) cells, obtained from Paul L. Prather, University of Arkansas for Medical Sciences
Description: For binding studies crude homogenates of CHO(hCB2R) cells (obtained from Paul L. Prather, Department of Pharmacology and Toxicology, College of Medicine, University of Arkansas for Medical Sciences, USA) were incubated with the reference compound (self-blocking) or the CB2R-specific partial agonist GW405833 (Tocris Bioscience, Bristol, UK) with indicated concentrations at room temperature for 90 min. The total volume of 1 mL of each sample consisted of 600 µL incubation buffer (50 mM Tris HCl pH7.4, 5 mM MgCl2, 1 mM EDTA and 1% Bovine Serum Albumin), 200 µL cell membrane homogenates, 100 µL competitor or binding buffer (total binding) and 100 µl of binding buffer with [^18F]JHU94620-d8 (about 100 kBq per vial, corresponding to 0.8 to 1.6 nM). Incubation was terminated by rapid filtration through a GF-B glass fibre filter, pre-treated with 0.5% PVP with 0.1% Tween 20 solution, using a 48-well cell harvester, washed six times with buffer and filter bound activity was subsequently measured in a γ-counter (1480 WIZARD, Perkin Elmer, Turku, Finland).
(§1) The KD values were calculated with GraphPad Prism according to the modified Cheng-Prusoff method for homologous competitive binding studies, where the KD = Ki = IC50—[radioligand] and the Bmax = specific binding / [radioligand] / ((KD + [radioligand])) (Motulsky and Neubig [2000]), assuming a total protein content of 8.2% (1.3 10^–4 µg protein per voxel) in the spleen (Zaia et al. [2000]) or by determining the protein concentration of the cell membrane lysates using a BCA assay (Thermo Scientific, Braunschweig, Germany). The fractional occupancy defined as occupied binding sites per total binding sites is used to describe the binding fraction specifically bound to CB2R compared to unspecific binding, where [L] is the concentration of the ligand at the start of incubation.

CB2R [8] = molecular target: T1, CB2R; assay: Quantitative autoradiography, rat spleen cryosections; assay type: binding; details: 100 nM CB2R PAM, rat spleen
Description: For quantitative autoradiography in different species, 10 µm cryosections from mouse, rat and piglet spleen were thawed, dried, and pre-incubated with incubation buffer for 10 min, dried under an airstream. Subsequently, the incubation buffer containing [^18F]JHU94620-d8 (59–137 GBq µmol^−1, 1.7–3.6 nM) was added alone or together with indicated concentrations of the reference compound. Additionally, to assess the non-specific binding of [^18F]JHU94620-d8 to cryosections GW405833 was added instead of the reference compound. After 90 min, cryosections were washed two times for 2 min with ice-cold 50 mM Tris HCl, pH7.4 and 10 s in ddH2O and subsequently dried under an airstream. For the calculation of the radioactivity concentration, 5 µl of five serial 1:2 dilutions of the incubation buffer with [^18F]JHU94620-d8 were air-dried on a microscopic slide. For binding studies in rat spleen cryosections by autoradiography with HLM-derived radiometabolites of [^18F]JHU94620-d8 obtained from the radiometabolite assay, the samples were added to the incubation buffer to a final activity concentration of 0.2 MBq mL^−1 and protocol was followed as described above. Subsequently, the slides were exposed to a phosphor imager plate. After scanning at high sensitivity and a 12.5 µm resolution with a CR35 Bio image plate scanner (Raytest Isotopenmessgeräte GmbH, Straubenhardt, Germany). The analyses of the autoradiographic images were performed with the AIDA 5.1 software (Elysia-Raytest, Angleur, Belgium) resulting in a resolution of 12.617 pixel × 12.616 pixel per µm^2 (1 voxel = 1592 µm^3 ≙ 1.59 10^–3 µg wet tissue) and inhibition curves were created with GraphPad Prism 9.5.1 (GraphPad Inc., La Jolla, CA).
as §1

hCB2R(D80N) = hCB2R(D80N) (Homo sapiens, UniProt P34972, D80N); assay: Homologous displacement autoradiography, brain cryosections of rats with hCB2R(D80N) overexpression; assay type: binding; details: hCB2R(D80N) region, 10 µm rat brain cryosections, homologous displacement, n = 3; read-out: KD
[9] = ref McPartland et al. [2007], Kosar et al. [2024]
[10] = ref Caillé et al. [2017], Auvity et al. [2024]

T3 sequence (P34972 whole entry): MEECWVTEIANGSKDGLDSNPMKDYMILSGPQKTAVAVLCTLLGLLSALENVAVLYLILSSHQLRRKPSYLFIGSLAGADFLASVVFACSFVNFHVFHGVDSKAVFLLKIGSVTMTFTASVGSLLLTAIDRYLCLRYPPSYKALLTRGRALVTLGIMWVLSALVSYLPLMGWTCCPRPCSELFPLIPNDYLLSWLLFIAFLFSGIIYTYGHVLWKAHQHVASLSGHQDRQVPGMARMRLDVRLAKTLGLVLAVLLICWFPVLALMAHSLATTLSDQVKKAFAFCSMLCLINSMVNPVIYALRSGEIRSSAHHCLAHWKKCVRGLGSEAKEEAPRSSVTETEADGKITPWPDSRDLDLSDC
T2 sequence (P47936 whole entry): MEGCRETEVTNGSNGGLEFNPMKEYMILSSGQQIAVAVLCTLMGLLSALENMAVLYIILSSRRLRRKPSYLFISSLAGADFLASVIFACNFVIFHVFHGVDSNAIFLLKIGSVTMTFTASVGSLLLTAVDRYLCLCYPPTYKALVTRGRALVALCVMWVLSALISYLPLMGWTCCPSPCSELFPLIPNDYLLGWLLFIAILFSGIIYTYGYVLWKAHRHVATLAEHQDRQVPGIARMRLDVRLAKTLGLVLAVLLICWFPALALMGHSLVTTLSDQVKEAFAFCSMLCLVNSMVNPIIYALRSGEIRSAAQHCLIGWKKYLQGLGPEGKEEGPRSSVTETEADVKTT
Chain of hCB2R(D80N) (P34972 whole entry D80N): as the sequence (P34972 whole entry) above, with D80N counted along it

Δ^9-trans-tetrahydrocannabinol [THC]
Ki (CB1R; [9]): 0.025 µM
Ki (CB2R [1]; [9]): 0.036 µM

CCCCCCC(C)(C)c1ccc([C@@H]2C[C@H](O)CC[C@H]2CCCO)c(O)c1 [[^3H]CP55940]
Bmax (CB2R [2]): 0.71 ± 0.02 pmol mg^−1 protein
Bmax (CB2R [3]): 0.31 ± 0.03 pmol mg^−1 protein

COc1ccc2c(c1)c(CCN1CCOCC1)c(C)n2C(=O)c1cccc(Cl)c1Cl [GW405833, reference compound]
blocking of [^18F]JHU94620-d8 uptake into the spleen (CB2R [4]): significantly blocked

Cc1s/c(=N\C(=O)C2C(C)(C)C2(C)C)n(CCCC[18F])c1C [[^18F]JHU94620]
parent fraction in brain ([5]; CD-1 mouse brain, 30 min p.i., ref Moldovan et al. [2016]): 0.36
parent fraction in plasma ([5]; mouse, in vivo): 0.07
Ki (hCB1R): 0.38 µM
Ki (hCB2R): 0.0004 µM
LogD7.4 [6]: 3.2
percentage printed at the radiotracer peak of the representative radio-HPLC chromatogram (Mice) [7]: 37%

Cc1s/c(=N\C(=O)C2C(C)(C)C2(C)C)n(CCOCC[18F])c1C [[^18F]FC0324, (Z)-N-(3-(2-(2-[^18F]Fluoroethoxy)ethyl)-4,5-dimethylthiazol-2(3H)-ylidene)-2,2,3,3-tetramethylcyclopropane-1-carboxamide]
Ki (CB1R; [10]): 0.03 µM
Ki (CB2R [1]; [10]): 0.0001 µM

CCCCC/C=C\C/C=C\C/C=C\C/C=C\CCCC(=O)NCCO [AEA, anandamide]
Ki (CB1R; [9]): 0.24 µM
Ki (CB2R [1]; [9]): 0.44 µM

Cc1c(Br)cn(Cc2ccc(F)cc2)c(=O)c1NC(=O)C1CCCCCC1 [CB2R PAM, reference compound]
effect of co-incubation on the binding of [^18F]JHU94620-d8 (human CB2R (hCB2R); 100 nM CB2R PAM, CHO(hCB2R) cell membranes): did not increase the binding
competition with [^18F]JHU94620-d8 binding (human CB2R (hCB2R); CB2R PAM binding assay, Figure S9 as cited): weak competitive binding
effect of co-incubation on the binding of [^18F]JHU94620-d8 (CB2R [8]): did not increase the binding

[2H]C([2H])(F)C([2H])([2H])C([2H])([2H])C([2H])([2H])n1c(C)c(C)s/c1=N\C(=O)C1C(C)(C)C1(C)C [JHU94620-d8, (Z)-N-(3-(4-Fluorobutyl-1,1,2,2,3,3,4,4-d8)-4,5-dimethylthiazol-2(3H)-ylidene)-2,2,3,3-tetramethylcyclopropane-1-carboxamide]
Kd (hCB2R(D80N)): 0.0413 µM
blocking of [^18F]JHU94620-d8 uptake into the spleen (CB2R [4]): significantly blocked

CCCCC/C=C\C/C=C\C/C=C\C/C=C\CCCC(=O)OC(CO)CO [2-AG, 2-arachydonilglycerol]
Ki (CB2R [1]; [9]): 1.19 µM
